In patent US20050282818A1, “Ubiquitin ligase inhibitors” (Rigel Pharmaceuticals, Inc., priority 2004, published 2005):

Target: T1, TRAF6/Uev1A/Ubc13 (Homo sapiens, UniProt Q9Y4K3)
T1 sequence (Q9Y4K3 1-522): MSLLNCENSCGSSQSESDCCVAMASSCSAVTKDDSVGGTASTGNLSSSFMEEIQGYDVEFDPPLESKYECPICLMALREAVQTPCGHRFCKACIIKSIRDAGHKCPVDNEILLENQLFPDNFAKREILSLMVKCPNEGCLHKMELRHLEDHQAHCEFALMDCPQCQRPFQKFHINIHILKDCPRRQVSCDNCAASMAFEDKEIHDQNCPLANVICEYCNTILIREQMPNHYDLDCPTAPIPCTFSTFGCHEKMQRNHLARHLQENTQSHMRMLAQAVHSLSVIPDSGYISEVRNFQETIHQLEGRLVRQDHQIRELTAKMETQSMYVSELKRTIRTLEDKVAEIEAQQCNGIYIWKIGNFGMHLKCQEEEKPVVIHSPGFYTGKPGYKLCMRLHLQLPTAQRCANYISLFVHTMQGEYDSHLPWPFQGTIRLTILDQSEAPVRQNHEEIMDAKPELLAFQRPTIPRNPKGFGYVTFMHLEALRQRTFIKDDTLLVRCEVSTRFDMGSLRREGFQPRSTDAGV
Assay: TRAF6/Uev1A/Ubc13 plate-based ubiquitin ligase assay
Assay type: biochemical
Experimental: For the assays described below, the TRAF6/Uev1A/UBC13 assay is the biochemical plate-based assay of TRAF6 ligase activity using Ubc13 as the E2 enzyme. The gel-based assay is the biochemical solution-based TRAF6 ligase assay (by SDS-PAGE and Western blot) to confirm the plate-based ELISA assay. The APC assay is an assay which is another E3 ligase (APC2/APC11) biochemical assay.
A 96-well Ni-plate was blocked with 100 μl of 1% casein in PBS for 1 hour at room temperature. The plates were then washed three times with 200 μl of 1×PBS and 80 μl of a reaction buffer was added per well which contained 50 ng of Flag-ubiquitin, 50 ng of His-ubiquitin, 62.5 mM Tris pH 7.5, 6.25 mM MgCl2, 1.0 mM DTT, and 2 μM ATP. To each well was added 10 μl of a solution of the compound in DMSO. The reaction was started by adding 10 μl of a solution consisting of 10 ng human E1, 25 ng each of Uev1a and Ubc13, and 100 ng TRAF6 in the reaction buffer. The plates were shaken for 10 minutes and incubate at room temperature for 1 hour. After the incubation, the plates were washed three times with 200 μl 1×PBS in 0.05% Tween and 100 μl of an antibody mix consisting of anti-Flag (1:30,000 dilution; Sigma F-3165) and anti-Mouse IgG-HRP (1/150,000 dilution; Jackson Immunoresearch #115-035-146) in 1×PBS with 0.25% BSA. The plates were then incubated for another 1 hour at room temperature, and after incubation the plate was washed three times with 200 μl 1×PBS with 0.05% Tween. The amount of ubiquitin was measured by adding 100 μl of Lumino substrate (1:5 dilution) and reading the luminescence with a fluorimeter.
Table 2 below illustrates the inhibitory activity of the compounds of the invention determined by the TRAF6/Uev1A/Ubc13 assay as well as in the ICAM, APC and the ROC1/CUL1 Ubiquitin Ligase Assay (SCF Assay). The IC50 values were determined using a various concentrations of the compounds.

`O=S(=O)(Nc1cccc2nonc12)c1ccc(Oc2ccc3c(C(F)(F)F)cc(C(F)(F)F)nc3n2)cc1` [compound 81, N-2,1,3-benzoxadiazol-4-yl-4-{[5,7-bis(trifluoromethyl)-1,8-naphthyridin-2-yl]oxy}benzenesulfonamide] and `O=S(=O)(Nc1cccc2nsnc12)c1ccc(Oc2ccc(C(F)(F)F)cc2Cl)nc1` [compound 117, N-2,1,3-benzothiadiazol-4-yl-6-[2-chloro-4-(trifluoromethyl)phenoxy]pyridine-3-sulfonamide] cannot be ordered by IC50: ≥ 20 µM for the first, ≥ 20 µM for the second.

`O=[N+]([O-])c1ccc(N2CCN(c3ccc([N+](=O)[O-])c4nonc34)CC2)cc1` [compound 147, 4-nitro-7-[4-(4-nitrophenyl)piperazin-1-yl]-2,1,3-benzoxadiazole] and `O=[N+]([O-])c1ccc(N2CCC(S(=O)(=O)c3ccccn3)CC2)c2nonc12` [compound 289, 4-nitro-7-[4-(pyridin-2-ylsulfonyl)piperidin-1-yl]-2,1,3-benzoxadiazole] cannot be ordered by IC50: 1 to 20 µM for the first, ≥ 20 µM for the second.

`CCOc1ccc2nc(NS(=O)(=O)c3ccc(Cl)c4nonc34)sc2c1` [compound 198, 7-chloro-N-(6-ethoxy-1,3-benzothiazol-2-yl)-2,1,3-benzoxadiazole-4-sulfonamide] and `Cc1cc(F)ccc1NS(=O)(=O)c1ccc(F)c2nonc12` [compound 276, 7-fluoro-N-(4-fluoro-2-methylphenyl)-2,1,3-benzoxadiazole-4-sulfonamide] cannot be ordered by IC50: ≥ 20 µM for the first, 1 to 20 µM for the second.

`O=[N+]([O-])c1ccc(N2CCSCC2)c2nonc12` [compound 237, 4-nitro-7-thiomorpholin-4-yl-2,1,3-benzoxadiazole] and `COC(=O)c1ccc(NS(=O)(=O)c2ccc(N3CCSCC3)c3nonc23)cc1` [compound 250, methyl 4-{[(7-thiomorpholin-4-yl-2,1,3-benzoxadiazol-4-yl)sulfonyl]amino}benzoate] cannot be ordered by IC50: ≥ 20 µM for the first, ≥ 20 µM for the second.

`O=S(=O)(c1cccc2nsnc12)N1CCC(Oc2ccccc2C(F)(F)F)CC1` [compound 240, 4-({4-[2-(trifluoromethyl)phenoxy]piperidin-1-yl}sulfonyl)-2,1,3-benzothiadiazole] and `O=S(=O)(c1ccc(Sc2ccc(O)cc2)c2nonc12)N1CCN(c2ccccc2)CC1` [compound 249, 4-({7-[(4-phenylpiperazin-1-yl)sulfonyl]-2,1,3-benzoxadiazol-4-yl}thio)phenol] cannot be ordered by IC50: ≥ 20 µM for the first, 1 to 20 µM for the second.

`CC1(C)CCN(S(=O)(=O)c2ccc(Cl)c3nonc23)CC1` [compound 247, 4-chloro-7-[(4,4-dimethylpiperidin-1-yl)sulfonyl]-2,1,3-benzoxadiazole] and `O=S(=O)(c1ccc(Sc2ccncc2)c2nonc12)N1CCN(c2ccccc2)CC1` [compound 251, 4-[(4-phenylpiperazin-1-yl)sulfonyl]-7-(pyridin-4-ylthio)-2,1,3-benzoxadiazole] cannot be ordered by IC50: ≥ 20 µM for the first, ≥ 20 µM for the second.

`COC(=O)c1ccc(NS(=O)(=O)c2ccc(Sc3ccc4ccccc4n3)c3nonc23)cc1` [compound 248, methyl 4-({[7-(quinolin-2-ylthio)-2,1,3-benzoxadiazol-4-yl]sulfonyl}amino)benzoate] and `COC(=O)c1ccc(NS(=O)(=O)c2ccc(Oc3cccc4cccnc34)c3nonc23)cc1` [compound 277, methyl 4-({[7-(quinolin-8-yloxy)-2,1,3-benzoxadiazol-4-yl]sulfonyl}amino)benzoate] cannot be ordered by IC50: ≥ 20 µM for the first, ≥ 20 µM for the second.

`O=S(=O)(c1ccc(Sc2ccc3ccccc3n2)c2nonc12)N1CCN(c2ccccc2)CC1` [compound 252, 2-({7-[(4-phenylpiperazin-1-yl)sulfonyl]-2,1,3-benzoxadiazol-4-yl}thio)quinoline] and `O=S(=O)(c1ccc(Sc2cccc3ccccc23)c2nonc12)N1CCN(c2ccccc2)CC1` [compound 253, 4-(1-naphthylthio)-7-[(4-phenylpiperazin-1-yl)sulfonyl]-2,1,3-benzoxadiazole] cannot be ordered by IC50: ≥ 20 µM for the first, 1 to 20 µM for the second.

`O=S(=O)(Nc1cccc(F)c1)c1ccc(F)c2nonc12` [compound 272, 7-fluoro-N-(3-fluorophenyl)-2,1,3-benzoxadiazole-4-sulfonamide] and `O=S(=O)(Nc1cccc(F)c1)c1ccc(Nc2cccc(F)c2)c2nonc12` [compound 273, N-(3-fluorophenyl)-7-[(3-fluorophenyl)amino]-2,1,3-benzoxadiazole-4-sulfonamide] cannot be ordered by IC50: ≥ 20 µM for the first, ≥ 20 µM for the second.

`Cc1cc(F)ccc1Nc1ccc(S(=O)(=O)Nc2ccc(F)cc2C)c2nonc12` [compound 275, N-(4-fluoro-2-methylphenyl)-7-[(4-fluoro-2-methylphenyl)amino]-2,1,3-benzoxadiazole-4-sulfonamide] and `O=[N+]([O-])c1ccc(S(=O)(=O)c2cccc3cccnc23)c2nonc12` [compound 290, 8-[(7-nitro-2,1,3-benzoxadiazol-4-yl)sulfonyl]quinoline] cannot be ordered by IC50: 1 to 20 µM for the first, ≥ 20 µM for the second.

`FC(F)(F)c1cnc(N2CCN(c3ccc(N4CCOCC4)c4nonc34)CC2)c(Cl)c1` [compound 282, 4-{4-[3-chloro-5-(trifluoromethyl)pyridin-2-yl]piperazin-1-yl}-7-morpholin-4-yl-2,1,3-benzoxadiazole] and `O=[N+]([O-])c1c(N2CCCCC2)cc(N2CCN(c3ncc(C(F)(F)F)cc3Cl)CC2)c2nonc12` [compound 296, 7-{4-[3-chloro-5-(trifluoromethyl)pyridin-2-yl]piperazin-1-yl}-4-nitro-5-piperidin-1-yl-2,1,3-benoxadiazole] cannot be ordered by IC50: ≥ 20 µM for the first, 1 to 20 µM for the second.

`CCN(CC)c1cc(N2CCN(c3ccc(Cl)c(C(F)(F)F)c3)CC2)c2nonc2c1[N+](=O)[O-]` [compound 292, 7-{4-[4-chloro-3-(trifluoromethyl)phenyl]piperazin-1-yl}-N,N-diethyl-4-nitro-2,1,3-benzoxadiazol-5-amine] and `CCN(CC)c1cc(N2CCN(c3ncc(C(F)(F)F)cc3Cl)CC2)c2nonc2c1[N+](=O)[O-]` [compound 293, 7-{4-[3-chloro-5-(trifluoromethyl)pyridin-2-yl]piperazin-1-yl}-N,N-diethyl-4-nitro-2,1,3-benzoxadiazol-5-amine] cannot be ordered by IC50: ≥ 20 µM for the first, ≥ 20 µM for the second.

`CCN(CC)c1cc(N2CCN(c3ncccc3C#N)CC2)c2nonc2c1[N+](=O)[O-]` [compound 294, 2-{4-[6-(diethylamino)-7-nitro-2,1,3-benzoxadiazol-4-yl]piperazin-1-yl}nicotinonitrile] and `N#Cc1cccnc1N1CCN(c2cc(N3CCCCC3)c([N+](=O)[O-])c3nonc23)CC1` [compound 297, 2-[4-(7-nitro-6-piperidin-1-yl-2,1,3-benzoxadiazol-4-yl)piperazin-1-yl]nicotinonitrile] cannot be ordered by IC50: ≥ 20 µM for the first, ≥ 20 µM for the second.

`O=[N+]([O-])c1c(N2CCCCC2)cc(N2CCN(c3ccc(Cl)c(C(F)(F)F)c3)CC2)c2nonc12` [compound 295, 7-{4-[4-chloro-3-(trifluoromethyl)phenyl]piperazin-1-yl}-4-nitro-5-piperidin-1-yl-2,1,3-benzoxadiazole] and `CCN(CC)c1cc(N2CCC3(CC2)OCc2ccccc23)c2nonc2c1[N+](=O)[O-]` [compound 298, N,N-diethyl-4-nitro-7-(1′H,3H-spiro[2-benzofuran-1,4′-piperidin]-1′-yl)-2,1,3-benzoxadiazol-5-amine] cannot be ordered by IC50: ≥ 20 µM for the first, ≥ 20 µM for the second.

In the case of `CCN(CC)c1cc(N2CCC(O)(c3ccccc3)CC2)c2nonc2c1[N+](=O)[O-]` [compound 299, 1-[6-(diethylamino)-7-nitro-2,1,3-benzoxadiazol-4-yl]-4-phenylpiperidin-4-ol], the IC50 is reported as ≥ 20 µM.
